Patent publication US20060165731A1, “Vaccines” (British Technology Group Ltd., priority 1986, published 2006)

Key:
Assay type in all cases: in vivo, Eimeria (in Cobb broiler chickens)
[1] = system: seven homologous strains of each of the seven species of Eimeria; experiment: Vaccine trial in Cobb broiler chickens, homologous challenge
Description: (§1) The vaccine of Example 3 was used in a trial conducted on 4,480 Cobb broiler chickens kept in floor pens. The concentration of xanthan gum in the vaccine was adjusted so that administration of 140 doses of vaccine to each drinking vessel provided a final xanthan gum concentration of 0.03%. The trial was designed to compare the performance of birds vaccinated with live attenuated coccidiosis vaccine of the invention and birds fed the coccidiostat, monensin, in the face of a challenge with seven homologous or seven heterologous strains of each of the seven species of Eimeria. The heterologous strains were chosen on the basis that they were either thought to be more pathogenic than the homologous ones or antigenically distinct.
(§2) Birds were penned in groups of 140. Four pens were allocated to each treatment and two pens were allocated to each control group. […] The allocation of pens to treatment was randomised throughout the broiler house. The design of the trial was as follows:
(§3) The vaccine was administered via the drinking water. The birds were fed a ration based on a commercial formulation which included the antibiotic growth promoter avoparcin at 10 ppm. The anticoccidial drugs were administered in the feed.
(§4) It should be noted that, in order to prevent infection by wild Eimeria strains, and consequent development of immunity, the two control groups were fed robenidine (30 ppm) for 28 days. One group received a heterologous challenge and the other received a homologous challenge.
(§5) All birds received an individual oral challenge administered by inoculation into the crop on day 31. The numbers of oocysts of each species in the challenge doses were as follows:—
(§6) Liveweights and cumulative feed intakes were measured on days 30, 37 and 49. Feed conversion ratios were calculated by dividing the feed intake by the gain in liveweight from day 1. Counts of oocysts in the litter were made for each pen at weekly intervals. On day 37, a sample of 5 birds from each pen (total 160) was culled and coccidiosis lesion scores were estimated. Scores were made on a scale of 0 to 3.5 in ascending severity of the lesions symptomatic of infection with E. acervulina, E. brunetti, E. maxima/necatrix (grouped together because they are difficult to distinguish) and E. tenella. Mean lesion scores were calculated.

[2] = system: seven heterologous strains of each of the seven species of Eimeria; experiment: Vaccine trial in Cobb broiler chickens, heterologous challenge
Description: as §1, §2, §3, §4, §5, §6

[3] = system: seven homologous or seven heterologous strains of each of the seven species of Eimeria; experiment: Vaccine trial in Cobb broiler chickens, overall (homologous and heterologous challenge)
Description: as §1, §2
The vaccine was administered via the drinking water. The birds were fed a ration based on a commercial formulation which included the antibiotic growth promoter avoparcin at 10 ppm. […]
Liveweights and cumulative feed intakes were measured on days 30, 37 and 49. Feed conversion ratios were calculated by dividing the feed intake by the gain in liveweight from day 1. […] Mean lesion scores were calculated.

Compound: CC[C@@]1([C@@H]2O[C@@H]([C@H]3O[C@@](O)(CO)[C@H](C)C[C@@H]3C)C[C@@H]2C)CC[C@H]([C@]2(C)CC[C@]3(C[C@H](O)[C@@H](C)[C@@H]([C@@H](C)[C@@H](OC)[C@H](C)C(=O)O)O3)O2)O1 [Monensin, monensin]
- Mean Lesion Score E. acervulina ([1]; Homologous challenge, day 37, scale of 0 to 3.5, control 0.2): 0
- Mean Lesion Score E. brunetti ([1]; Homologous challenge, day 37, scale of 0 to 3.5, control 0.40): 0.03
- Mean Lesion Score E. maxima/necatrix ([1]; Homologous challenge, day 37, scale of 0 to 3.5, control 1.25): 0.13
- Mean Lesion Score E. tenella ([1]; Homologous challenge, day 37, scale of 0 to 3.5, control 2.25): 0.20
- LIVEWEIGHTS ([1]; day 49, Homologous Challenge on day 31, control 2225): 2489 g/bird
- Mean Lesion Score E. acervulina ([2]; Heterologous challenge, day 37, scale of 0 to 3.5, control 0.30): 0.10
- Mean Lesion Score E. brunetti ([2]; Heterologous challenge, day 37, scale of 0 to 3.5, control 0.70): 0
- Mean Lesion Score E. maxima/necatrix ([2]; Heterologous challenge, day 37, scale of 0 to 3.5, control 2.00): 0.95
- Mean Lesion Score E. tenella ([2]; Heterologous challenge, day 37, scale of 0 to 3.5, control 2.65): 1.53
- Counts of oocysts in the litter, pens of monensin treated birds relative to pens of vaccinated birds ([2]; after challenge with heterologous strains, on average, very high pen to pen variation): two or three times higher
- LIVEWEIGHTS ([2]; day 49, Heterologous Challenge on day 31, control 2197): 2407 g/bird
- Lesion scores for heterologous E. maxima/necatrix ([2]; in each case lower than the controls): Slightly elevated scores
- Lesion scores after either homologous or heterologous challenge ([3]; compared with controls): lower lesion scores
- Protecting against coccidial challenge (performance of the birds, overall) ([3]; vaccine compared with monensin): equally effective
